# Assay results: PMC6008465 (British Journal of Cancer, 2018)
# Marks after values point to notes of the source that are not given here.
# Tests used:
# [1] = tested on: MEK1; conditions: preclinical models; cited from earlier work
# [2] = tested on: metastatic BRAF-mutated or WT melanoma; experiment: Part B tumour response (RECIST 1.0); type: in vivo, human; conditions: for Duration of SD: one patient; for Median (95% CI) duration of PFS / Median (95% CI) duration of SD: Kaplan-Meier estimate
# Method: In Part B, an adaptive study design was planned to define an optimal dosing schedule. […] One dose escalation (from 160 mg/m^2 to 320 mg/m^2) was allowed in Schedule II for MTD determination. […] Toxicity was managed as before. Up to 30 patients with BRAF-mutated melanoma and up to 29 patients with BRAF-WT melanoma were to be enrolled in Schedule I. Up to 30 patients were to be enrolled into Schedule II once the MTD was confirmed.
# (§1) Efficacy was assessed by tumour response determined by investigator review of computed tomography/magnetic resonance imaging scans using Response Evaluation Criteria in Solid tumours version 1.0 (RECIST).[17]
# [3] = Part B pharmacokinetics by BRAF genotype; type: in vivo, human; conditions: Part B dose-expansion, by dose and genotype
# Method: In Part A, blood was collected on Cycle 1, Days 1 and 15 at specified intervals prior to, during, and postinfusion (5 min–8 h), and on Days 2, 3, 16, and 17 (24 and 48 h postinfusion). Urine was collected on Cycle 1, Day 1 preinfusion, at 0–8 h, and 8–24 h. In Part B, blood was collected on Cycle 1, Day 1, prior to, during, and at 1–24 h postinfusion. Pharmacokinetic parameters were calculated using noncompartmental analysis.
# [4] = tested on: advanced solid tumours; experiment: Part A tumour response (RECIST 1.0); type: in vivo, human
# Method: The primary objectives of this phase 1 study were to evaluate the safety, tolerability, and MTD of once-weekly (Schedule I) and twice-weekly (Schedule II) dosing. […] Toxicity was managed by dose interruption, reduction, and/or discontinuation. Only Cycle 1 adverse events (AEs) were evaluable as DLTs. […] All ongoing patients could continue at 320 mg/m^2, regardless of initial starting dose.
# as §1
# [5] = Part B, BRAF-WT 320 mg/m^2 once weekly (n=7)
# [6] = Part B, BRAF-mutated 160 mg/m^2 twice weekly (n=3)
# [7] = Part B, BRAF-mutated 320 mg/m^2 once weekly (n=20)
compound,measurement,setting,value
"CCNc1cc(O)c2c(c1)/C=C/C[C@H](O)[C@H](O)C(=O)/C=C\[C@@H](C)[C@H](C)OC2=O [E6201, (3S,4R,5Z,8S,9S,11E)-14-(ethylamino)-8,9,16-trihydroxy-3,4-dimethyl-3,4,9,19-tetrahydro-1H-2-benzoxacyclotetradecine-1,7 (8H)-dione]",Time after dosing at which MEK1 inhibition occurred,[1],8 h
same,Time postdose for which MEK1 inhibition was sustained,[1],72 h
same,Patients with PR / patients,"[2]; Part B, BRAF-WT",1/7
same,Patients with SD / patients,"[2]; Part B, BRAF-WT",1/7
same,Complete response (CR),[2]; [5],0 n (%)
same,Disease control rate (CR+PR+SD),[2]; [5],2 (28.6) n (%)
same,Not evaluable (NE),[2]; [5],1 (14.3) n (%)
same,Overall response rate (CR+PR),[2]; [5],1 (14.3) n (%)
same,Partial response (PR),[2]; [5],1 (14.3)^b n (%)
same,Progressive disease (PD),[2]; [5],2 (28.6) n (%)
same,Duration of SD,"[2]; Part B, BRAF-WT 320 mg/m^2 once weekly",4 cycles
same,Disease control rate (DCR; complete response + PR + SD),"[2]; Part B, BRAF-WT melanoma (2/7)",28.6%
same,Complete response (CR),[2]; [6],0 n (%)
same,Disease control rate (CR+PR+SD),[2]; [6],1 (33.3) n (%)
same,Not evaluable (NE),[2]; [6],0 n (%)
same,Overall response rate (CR+PR),[2]; [6],0 n (%)
same,Partial response (PR),[2]; [6],0 n (%)
same,Progressive disease (PD),[2]; [6],1 (33.3) n (%)
same,Median (95% CI) duration of PFS,[2]; [6],83.5 (29.0–138.0) days
same,Median (95% CI) duration of SD,[2]; [6],138.0 (29.0–138.0) days
same,Duration of SD,"[2]; Part B, BRAF-mutated 160 mg/m^2 twice weekly",> 4 cycles
same,Patients with SD for ≥4 cycles,"[2]; Part B, BRAF-mutated 320 mg/m^2 once weekly",5 patients
same,Complete response (CR),[2]; [7],0 n (%)
same,Disease control rate (CR+PR+SD),[2]; [7],9 (45.0) n (%)
same,Not evaluable (NE),[2]; [7],1 (5.0) n (%)
same,Overall response rate (CR+PR),[2]; [7],2 (10.0) n (%)
same,Partial response (PR),[2]; [7],2 (10.0)^a n (%)
same,Progressive disease (PD),[2]; [7],6 (30.0) n (%)
same,Median (95% CI) duration of PFS,[2]; [7],73.0 (26.0–166.0) days
same,Median (95% CI) duration of SD,[2]; [7],73.0 (29.0–166.0) days
same,Patients with PR / patients,"[2]; Part B, BRAF-mutated melanoma",2/23
same,Patients with SD / patients,"[2]; Part B, BRAF-mutated melanoma",8/23
same,Disease control rate (DCR; complete response + PR + SD),"[2]; Part B, BRAF-mutated melanoma (10/23)",43.5%
same,Complete response (CR),"[2]; Part B, Total (N=30)",0 n (%)
same,Disease control rate (CR+PR+SD),"[2]; Part B, Total (N=30)",12 (40.0) n (%)
same,Not evaluable (NE),"[2]; Part B, Total (N=30)",2 (6.7) n (%)
same,Overall response rate (CR+PR),"[2]; Part B, Total (N=30)",3 (10.0) n (%)
same,Partial response (PR),"[2]; Part B, Total (N=30)",3 (10.0) n (%)
same,Progressive disease (PD),"[2]; Part B, Total (N=30)",9 (30.0) n (%)
same,Number of partial responses (PR),"[2]; Part B, all",three
same,Patients with SD for ≥4 cycles (3.7 months),"[2]; Part B, all groups",seven
same,Number of partial responses (PR),"[2]; Part B, BRAF-WT melanoma, 320 mg/m^2 once-weekly",1
same,Number of partial responses (PR),"[2]; Part B, V600E BRAF-mutated melanoma, 320 mg/m^2 once-weekly",2
same,Response of brain metastases,[2]; one patient with BRAF-mutated melanoma who achieved a PR,brain metastases that responded to treatment
same,Effect of BRAF mutation on PK properties,[3],no effect
same,Best overall response: Complete response (CR),[4]; 20 mg/m^2 (n=4),0 n (%)
same,Best overall response: Not evaluable (NE),[4]; 20 mg/m^2 (n=4),0 n (%)
same,Best overall response: Partial response (PR),[4]; 20 mg/m^2 (n=4),0 n (%)
same,Best overall response: Progressive disease (PD),[4]; 20 mg/m^2 (n=4),3 (75.0) n (%)
same,Disease control rate (CR+PR+SD),[4]; 20 mg/m^2 (n=4),1 (25.0) n (%)
same,Overall response rate (CR+PR),[4]; 20 mg/m^2 (n=4),0 n (%)
same,Best overall response: Complete response (CR),[4]; 40 mg/m^2 (n=3),0 n (%)
same,Best overall response: Not evaluable (NE),[4]; 40 mg/m^2 (n=3),0 n (%)
same,Best overall response: Partial response (PR),[4]; 40 mg/m^2 (n=3),0 n (%)
same,Best overall response: Progressive disease (PD),[4]; 40 mg/m^2 (n=3),1 (33.3) n (%)
same,Disease control rate (CR+PR+SD),[4]; 40 mg/m^2 (n=3),2 (66.7) n (%)
same,Overall response rate (CR+PR),[4]; 40 mg/m^2 (n=3),0 n (%)
same,Duration of SD,"[4]; 40 mg/m^2, patient with biliary duct cancer (BRAF-WT)",4 cycles
same,Duration of SD,"[4]; 40 mg/m^2, patient with colon cancer (BRAF-WT)",6 cycles
same,Best overall response: Complete response (CR),[4]; 80 mg/m^2 (n=3),0 n (%)
same,Best overall response: Not evaluable (NE),[4]; 80 mg/m^2 (n=3),0 n (%)
same,Best overall response: Partial response (PR),[4]; 80 mg/m^2 (n=3),0 n (%)
same,Best overall response: Progressive disease (PD),[4]; 80 mg/m^2 (n=3),2 (66.7) n (%)
same,Disease control rate (CR+PR+SD),[4]; 80 mg/m^2 (n=3),1 (33.3) n (%)
same,Overall response rate (CR+PR),[4]; 80 mg/m^2 (n=3),0 n (%)
same,Duration of SD,"[4]; 80 mg/m^2, patient with BRAF-WT uveal melanoma",15 cycles
same,Best overall response: Complete response (CR),[4]; 160 mg/m^2 (n=3),0 n (%)
same,Best overall response: Not evaluable (NE),[4]; 160 mg/m^2 (n=3),1 (33.3) n (%)
same,Best overall response: Partial response (PR),[4]; 160 mg/m^2 (n=3),0 n (%)
same,Best overall response: Progressive disease (PD),[4]; 160 mg/m^2 (n=3),2 (66.7) n (%)
same,Disease control rate (CR+PR+SD),[4]; 160 mg/m^2 (n=3),0 n (%)
same,Overall response rate (CR+PR),[4]; 160 mg/m^2 (n=3),0 n (%)
same,Best overall response: Complete response (CR),[4]; 320 mg/m^2 (n=7),0 n (%)
same,Best overall response: Not evaluable (NE),[4]; 320 mg/m^2 (n=7),1 (14.3) n (%)
same,Best overall response: Partial response (PR),[4]; 320 mg/m^2 (n=7),0 n (%)
same,Best overall response: Progressive disease (PD),[4]; 320 mg/m^2 (n=7),4 (57.1) n (%)
same,Disease control rate (CR+PR+SD),[4]; 320 mg/m^2 (n=7),1 (14.3) n (%)
same,Overall response rate (CR+PR),[4]; 320 mg/m^2 (n=7),0 n (%)
same,Best overall response: Complete response (CR),[4]; 400 mg/m^2 (n=1),0 n (%)
same,Best overall response: Not evaluable (NE),[4]; 400 mg/m^2 (n=1),0 n (%)
same,Best overall response: Partial response (PR),[4]; 400 mg/m^2 (n=1),0 n (%)
same,Best overall response: Progressive disease (PD),[4]; 400 mg/m^2 (n=1),0 n (%)
same,Disease control rate (CR+PR+SD),[4]; 400 mg/m^2 (n=1),1 (100) n (%)
same,Overall response rate (CR+PR),[4]; 400 mg/m^2 (n=1),0 n (%)
same,Duration of SD,"[4]; 400 mg/m^2, patient with gastric carcinoid (BRAF status unknown)",4 cycles
same,Best overall response: Complete response (CR),[4]; 480 mg/m^2 (n=4),0 n (%)
same,Best overall response: Not evaluable (NE),[4]; 480 mg/m^2 (n=4),0 n (%)
same,Best overall response: Partial response (PR),[4]; 480 mg/m^2 (n=4),1 (25.0)^a n (%)
same,Best overall response: Progressive disease (PD),[4]; 480 mg/m^2 (n=4),0 n (%)
same,Disease control rate (CR+PR+SD),[4]; 480 mg/m^2 (n=4),3 (75.0) n (%)
same,Overall response rate (CR+PR),[4]; 480 mg/m^2 (n=4),1 (25.0) n (%)
same,Duration of SD,"[4]; 480 mg/m^2, patient with papillary thyroid cancer (BRAF-WT)",4 cycles
same,Duration of partial response,"[4]; BRAF-mutated papillary thyroid cancer patient, 480 mg/m^2",4 cycles
same,Best overall response: Complete response (CR),[4]; Total (N=25),0 n (%)
same,Best overall response: Not evaluable (NE),[4]; Total (N=25),2 (8.0) n (%)
same,Best overall response: Partial response (PR),[4]; Total (N=25),1 (4.0) n (%)
same,Best overall response: Progressive disease (PD),[4]; Total (N=25),12 (48.0) n (%)
same,Disease control rate (CR+PR+SD),[4]; Total (N=25),9 (36.0) n (%)
same,Overall response rate (CR+PR),[4]; Total (N=25),1 (4.0) n (%)
same,Number of partial responses (PR),"[4]; V600E BRAF-mutated papillary thyroid cancer, 480 mg/m^2 qw",One
same,Patients with SD for ≥4 cycles (3.7 months),[4]; five patients,20.0%
